The supplement of paper PMC10307832

What was measured:
Experiment in all cases: relative viability (nuclei count vs DMSO), 5 days (fraction); higher = more cells survive
[1] = compound: CC(C)CCN1c2nc(Nc3cc(F)c(O)c(F)c3)ncc2N(C)C(=O)C1C [BI-D1870] + CC(=O)Nc1cccc(-n2c(=O)n(C3CC3)c(=O)c3c(Nc4ccc(I)cc4F)n(C)c(=O)c(C)c32)c1 [Trametinib] (partner 0.02 µM)
How it was run: (§1)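 For relative viability, nuclei counts in treated wells were divided by those in vehicle wells. Lung cancer cell lines had been pin-tool dosed in 1536-well plates the day after seeding and cultured for 5 days, then fixed and stained in one step (final 0.05% Triton X-100, 1% formaldehyde, 1 ug/ml Hoechst) and imaged at 4×. Doses were one drug alone or a fixed anchor-drug dose plus five library-drug doses (not always all listed) in √10 steps, and values are duplicate-plate medians.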

[2] = compound: CC(C)CCN1c2nc(Nc3cc(F)c(O)c(F)c3)ncc2N(C)C(=O)C1C [BI-D1870] + CS(=O)(=O)N1CCN(Cc2cc3nc(-c4cccc5[nH]ncc45)nc(N4CCOCC4)c3s2)CC1 [Pictilisib] (partner 1 µM)
How it was run: as §1

[3] = compound: O=c1ncccn1[C@@H]1O[C@H](CO)[C@@H](O)[C@H]1O [Zebularine] + CS(=O)(=O)CCNCc1ccc(-c2ccc3ncnc(Nc4ccc(OCc5cccc(F)c5)c(Cl)c4)c3c2)o1 [Lapatinib] (partner 2 µM)
How it was run: as §1

[4] = compound: O=c1ncccn1[C@@H]1O[C@H](CO)[C@@H](O)[C@H]1O [Zebularine] + O=C(c1cc(Cc2n[nH]c(=O)c3ccccc23)ccc1F)N1CCN(C(=O)C2CC2)CC1 [Olaparib] (partner 8 µM)
How it was run: as §1

UMC-11 gave a relative viability ([1]; first compound 0.04 µM) of 0.701, a relative viability ([1]; first compound 0.1265 µM) of 0.682 and a relative viability ([1]; first compound 0.4 µM) of 0.688. It also gave a relative viability ([1]; first compound 1.265 µM) of 0.774, a relative viability ([1]; first compound 4 µM) of 0.352 and a relative viability ([2]; first compound 0.04 µM) of 0.908. For the same cell line, the relative viability ([2]; first compound 0.1265 µM) was 0.608, the relative viability ([2]; first compound 0.4 µM) was 0.759 and the relative viability ([2]; first compound 1.265 µM) was 0.733. It also gave a relative viability ([2]; first compound 4 µM) of 0.316, a relative viability ([3]; first compound 1 µM) of 1.28 and a relative viability ([3]; first compound 3.162 µM) of 0.977. For the same cell line, the relative viability ([3]; first compound 10 µM) was 0.614, the relative viability ([3]; first compound 31.62 µM) was 0.849 and the relative viability ([3]; first compound 100 µM) was 0.436. It also gave a relative viability ([4]; first compound 1 µM) of 0.407, a relative viability ([4]; first compound 3.162 µM) of 0.377 and a relative viability ([4]; first compound 10 µM) of 0.346. It also gave a relative viability ([4]; first compound 31.62 µM) of 0.362 and a relative viability ([4]; first compound 100 µM) of 0.293.
